Starred links: 1 amine or outer side, 2 acyl side, 3 side chain; linkers in the order of their positions; H or OH if unused. Non-standard residues stand in square brackets, D forms with d. Residues, ends and D or L forms follow the SMILES beside them. *: point of attachment. X8 = CCCCCCCCCCCCCCCCc1cn(CCOCCOCCOCCOCCOCCOCCOCCOCCC(=O)*)nn1; X2 = CCCCCCCCCCCC(=O)NCCOCCOCCOCCOCCOCCn1cc(CC(=O)*)nn1; dPhe(2,4-Cl2) = N[C@H](Cc1ccc(Cl)cc1Cl)C(=O)O; Ala(4-thiazolyl) = N[C@@H](Cc1cscn1)C(=O)O; X12 = O=C([C@@H]1Cc2ccccc2N1[*:1])[*:2]; Pro(4,4-F2) = O=C(O)[C@@H]1CC(F)(F)CN1; Pro(4R-NH2) = N[C@H]1CN[C@H](C(=O)O)C1; dAla(2-furyl) = N[C@H](Cc1ccco1)C(=O)O; X9 = CC(C)CC(C(=O)[*:2])C(=S)NCN[*:1]; Arg(Me) = CNC(=N)NCCC[C@H](N)C(=O)O; Hyp = O=C(O)[C@@H]1C[C@@H](O)CN1; Ac6c = NC1(C(=O)O)CCCCC1; Deg = CCC(N)(CC)C(=O)O; azaGly = NNC(=O)O
The compounds below were run against T1, human kiss1 receptor (GPR54) (Homo sapiens, UniProt Q969F8) (assay: Kiss1 receptor (GPR54) binding activity of agonists, FRET detection in NFAT-bla CHO-K1 cells). Conditions: GPR54; measured according to the method of effect Embodiment 1; preliminary data; read-out: Preliminary measurement data (GPR54) EC50.
T1 construct: host or cells: NFAT-bla CHO-K1 cells (Chinese hamster ovary), purchased recombinant cell line
T1 sequence (Q969F8 whole entry): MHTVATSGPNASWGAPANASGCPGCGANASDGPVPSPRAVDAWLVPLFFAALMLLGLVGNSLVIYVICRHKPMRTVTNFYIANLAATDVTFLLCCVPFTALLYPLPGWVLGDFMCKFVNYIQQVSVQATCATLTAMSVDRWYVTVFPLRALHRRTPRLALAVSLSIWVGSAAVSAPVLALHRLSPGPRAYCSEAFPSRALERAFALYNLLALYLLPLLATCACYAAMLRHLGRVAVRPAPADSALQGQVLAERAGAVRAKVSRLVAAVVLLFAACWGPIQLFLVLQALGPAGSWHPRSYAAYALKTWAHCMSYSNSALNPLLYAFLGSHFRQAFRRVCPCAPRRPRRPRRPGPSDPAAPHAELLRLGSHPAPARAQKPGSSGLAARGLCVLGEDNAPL
Type: cell-based

SMILES	EC50 [nM]
CNC(=N)NCCC[C@H](NC(=O)[C@H](CC(C)C)NC(=O)[C@H](Cc1cscn1)NC(=O)[C@H](Cc1ccccc1)NC(=O)[C@@H](NC(=O)[C@H](CC(N)=O)NC(=O)[C@@H]1C[C@@H](O)CN1C(=O)[C@@H](Cc1ccc(O)cc1)NC(C)=O)[C@@H](C)O)C(=O)N[C@@H](Cc1c[nH]c2ccccc12)C(N)=O [YA-357, Ac-(D-Tyr)-Hyp-Asn-Thr-Phe-Beta-(thiazoly-4-yl)-L-Ala-Leu-Arg(Me)-Trp-NH2] (Ac-[dY][Hyp]NTF[Ala(4-thiazolyl)]L[Arg(Me)]W-NH2)	0.3
CCCCCCCCCCCC(=O)NCCOCCOCCOCCOCCOCCn1cc(CC(=O)N[C@H](Cc2ccc(O)cc2)C(=O)N2C[C@H](O)C[C@H]2C(=O)N[C@@H](CC(N)=O)C(=O)N[C@H](C(=O)N[C@@H](Cc2ccccc2)C(=O)NCNC(=S)C(CC(C)C)C(=O)N[C@@H](CCCNC(=N)NC)C(=O)N[C@@H](Cc2c[nH]c3ccccc23)C(N)=O)[C@@H](C)O)nn1 (stereo partly drawn) [YA-348, M10 [Dodecanoyl-PEG5-1,2,3- Triazole cyclic-Acetyl, D-Tyr45, Hyp46, des47, Thr49, Gψ(NHCS)51, Arg(Me)53, Trp54]] (X2-[dY][Hyp]NTF[X9][Arg(Me)]W-NH2)	0.019
CCCCCCCCCCCCCCCCc1cn(CCOCCOCCOCCOCCOCCOCCOCCOCCC(=O)NCC(=O)NCC(=O)N[C@H](Cc2ccc(O)cc2)C(=O)N2C[C@H](O)C[C@H]2C(=O)N[C@@H](CC(N)=O)C(=O)N[C@H](C(=O)N[C@@H](Cc2ccccc2)C(=O)NNC(=O)N[C@@H](CC(C)C)C(=O)N[C@@H](CCCNC(=N)NC)C(=O)N[C@@H](Cc2c[nH]c3ccccc23)C(N)=O)[C@@H](C)O)nn1 [YA-367, M10 [Hexadecyl-1,2,3-Triazole-PEG8, G43, G44, D-Tyr45, Hyp46, des47, T49, AzaGly51, R(Me)53, W54]] (X8-GG[dY][Hyp]NTF[azaGly]L[Arg(Me)]W-NH2)	0.103

The next lines start with the values.

EC50 [nM]	SMILES
0.008	CNC(=N)NCCC[C@H](NC(=O)[C@H](CC(C)C)NC(=O)NNC(=O)[C@H](Cc1ccccc1)NC(=O)[C@@H](NC(=O)[C@H](CC(N)=O)NC(=O)[C@@H]1C[C@@H](N)CN1C(=O)[C@@H](Cc1ccc(O)cc1)NC(C)=O)[C@@H](C)O)C(=O)N[C@@H](Cc1c[nH]c2ccccc12)C(N)=O [YA-83, Ac-D-Tyr-Pro(4-NH2)-Asn-Thr-Phe-azaGly-Leu-Arg(Me)-Trp-NH2] (Ac-[dY][Pro(4R-NH2)]NTF[azaGly]L[Arg(Me)]W-NH2)
4.4	CNC(=N)NCCC[C@H](NC(=O)[C@H](CC(C)C)NC(=O)[C@@H]1Cc2ccccc2N1C(=O)[C@H](Cc1ccccc1)NC(=O)[C@@H](NC(=O)[C@H](CC(N)=O)NC(=O)[C@@H]1CC(F)(F)CN1C(=O)[C@@H](Cc1ccco1)NC(C)=O)[C@@H](C)O)C(=O)N[C@@H](Cc1c[nH]c2ccccc12)C(N)=O [YA-223, Ac-[3-(2-furyl)-D-Ala]-DifluoroPro-Asn-Thr-Phe-Ind-Leu-Arg(Me)-Trp-NH2] (Ac-[dAla(2-furyl)][Pro(4,4-F2)]NTF[X12]L[Arg(Me)]W-NH2)
0.015	CNC(=N)NCCC[C@H](NC(=O)[C@H](CC(C)C)NC(=O)NNC(=O)[C@H](Cc1ccccc1)NC(=O)[C@@H](NC(=O)[C@H](CC(N)=O)NC(=O)[C@@H]1C[C@@H](O)CN1C(=O)[C@@H](Cc1ccc(Cl)cc1Cl)NC(C)=O)[C@@H](C)O)C(=O)N[C@@H](Cc1c[nH]c2ccccc12)C(N)=O [YA-42, Ac-[D-Phe(2,4-DiCl)]-Hyp-Asn-Thr-Phe-azaGly-Leu-Arg(Me)-Trp-NH2] (Ac-[dPhe(2,4-Cl2)][Hyp]NTF[azaGly]L[Arg(Me)]W-NH2)

Same assay, conditions: human kiss1 receptor (GPR54), NFAT-bla CHO-K1 cells, FRET; preliminary data; method of effect Embodiment 1; read-out: Preliminary measurement data (GPR54) EC50

EC50 [nM]	SMILES
97.8	CNC(=N)NCCC[C@H](NC(=O)[C@H](CC(C)C)NC(=O)C1(NC(=O)[C@H](Cc2ccccc2)NC(=O)[C@@H](NC(=O)[C@H](CC(N)=O)NC(=O)[C@@H]2CC(F)(F)CN2C(=O)[C@@H](Cc2ccc(Cl)cc2Cl)NC(C)=O)[C@@H](C)O)CCCCC1)C(=O)N[C@@H](Cc1c[nH]c2ccccc12)C(=O)NC [YA-253, Ac-D-Phe(2,4-DiCl)-DiFluorPro-Asn-Thr-Phe-A6c-Leu-Arg(Me)-Trp-NHMe] (Ac-[dPhe(2,4-Cl2)][Pro(4,4-F2)]NTF[Ac6c]L[Arg(Me)]W-NHMe)
3.2	CNC(=N)NCCC[C@H](NC(=O)[C@H](CC(C)C)NC(=O)C1(NC(=O)[C@H](Cc2ccccc2)NC(=O)[C@@H](NC(=O)[C@H](CC(N)=O)NC(=O)C2(NC(=O)[C@@H](Cc3ccc(Cl)cc3Cl)NC(C)=O)CCCCC2)[C@@H](C)O)CCCCC1)C(=O)N[C@@H](Cc1c[nH]c2ccccc12)C(N)=O [YA-259, Ac-D-Phe(2,4-DiCl)-A6c-Asn-Thr-Phe-Abc-Leu-Arg(Me)-Trp-NH2] (Ac-[dPhe(2,4-Cl2)][Ac6c]NTF[Ac6c]L[Arg(Me)]W-NH2)
1.2	CCC(CC)(NC(=O)[C@H](Cc1ccccc1)NC(=O)[C@@H](NC(=O)[C@H](CC(N)=O)NC(=O)[C@@H]1C[C@@H](O)CN1C(=O)[C@@H](Cc1ccc(O)cc1)NC(C)=O)[C@@H](C)O)C(=O)N[C@@H](CC(C)C)C(=O)N[C@@H](CCCNC(=N)NC)C(=O)N[C@@H](Cc1c[nH]c2ccccc12)C(N)=O [YA-355, Ac-(D-Tyr)-Hyp-Asn-Thr-Phe-Deg-Leu-Arg(Me)-Trp-NH2] (Ac-[dY][Hyp]NTF[Deg]L[Arg(Me)]W-NH2)

Reference: patent publication US11427615B2, “Peptide compound and application thereof, and composition containing peptide compound” (XDCEXPLORER (SHANGHAI) CO., LTD., priority 2017, dated 2022)
